Results as given in patent publication US20100061928A1, “LABELLED ANALOGUES OF HALOBENZAMIDES AS RADIOPHARMACEUTICALS” (Institut National De La Sante et De La Recherche Medicale …, priority 2006, published 2010).

Legend:
[1] = Elimination of the molecules: cumulative urinary and faecal excretion 0-72 hours; assay type: in vivo, mouse; details: cumulative excretion 0-72 hours
[2] = system: grafted B16 F0 murine melanoma tumour; experiment: Biodistribution of the ^125I-labelled molecules in the melanoma-bearing mouse (autoradiography of whole-body sections); details: for Biodistribution, Mean, B 16: B 16 tumour
[3] = system: tumour; experiment: Dosimetry with regard to the tumour (MIRD programme, extrapolated to ^131I)

With `CCN(CC)CCNC(=O)c1ccc2cncc(I)c2n1.Cl.Cl` [compound 142, N-(2-diethylaminoethyl)-8-iodo-1,6-naphthyridine-2-carboxamide dihydrochloride] the “Faecal elimination 0-72 hours (Faeces)” value ([1]; faeces, mice in metabolic cages) was 29.4%, the “Urinary and faecal elimination 0-72 hours (Total)” value ([1]; urine + faeces) was 98.3% and the “Urinary elimination 0-72 hours (Urine)” value ([1]; urine, mice in metabolic cages) was 68.9%. For the same molecule, the “Biodistribution, Mean, B 16” value ([2]; 1 H) was 23.22, the “Biodistribution, Mean, B 16” value ([2]; 3 H) was 13.87 and the “Biodistribution, Mean, B 16” value ([2]; 6 H) was 11.42. The “Biodistribution, Mean, B 16” value ([2]; 24 H) was 8.37, the “Biodistribution, Mean, B 16” value ([2]; 72 H) was 3.31 and the “Biodistribution, Mean, GB” value ([2]; 3 H) was 41.51. For the same molecule, the “Biodistribution, Mean, GB” value ([2]; 6 H) was 28.67, the “Biodistribution, Mean, Ic” value ([2]; 1 H) was 32.83 and the “Biodistribution, Mean, Ic” value ([2]; 3 H) was 47.65. For the same molecule, the “Biodistribution, Mean, Ic” value ([2]; 6 H) was 43.48, the “Biodistribution, Mean, Ic” value ([2]; 24 H) was 0.82 and the “Biodistribution, Mean, Sc” value ([2]; 1 H) was 17.58. The “Biodistribution, Mean, Sc” value ([2]; 3 H) was 9.76, the “Biodistribution, Mean, Sc” value ([2]; 6 H) was 9.17 and the “Biodistribution, Mean, Sc” value ([2]; 24 H) was 0.62. For the same molecule, the “Biodistribution, Mean, Sc” value ([2]; 72 H) was 2.13, the “tumour concentration (in words)” value ([2]; ^125I-labelled compound, melanoma-bearing mouse) was “very high tumour concentration from one hour” and the “Biodistribution, Mean, blood” value ([2]; 1 H) was 2.21. For the same molecule, the “Biodistribution, Mean, blood” value ([2]; 3 H) was 1.88, the “Biodistribution, Mean, blood” value ([2]; 6 H) was 1.36 and the “Biodistribution, Mean, brain” value ([2]; brain, 1 H) was 0.35. The “Biodistribution, Mean, kidney” value ([2]; 1 H) was 4.01, the “Biodistribution, Mean, kidney” value ([2]; 3 H) was 1.51 and the “Biodistribution, Mean, kidney” value ([2]; 6 H) was 1.20. For the same molecule, the “Biodistribution, Mean, liver” value ([2]; 1 H) was 3.92, the “Biodistribution, Mean, liver” value ([2]; 3 H) was 2.27 and the “Biodistribution, Mean, liver” value ([2]; 6 H) was 1.49. The “Biodistribution, Mean, lungs” value ([2]; 1 H) was 2.36, the “Biodistribution, Mean, lungs” value ([2]; 3 H) was 1.87 and the “Biodistribution, Mean, lungs” value ([2]; 6 H) was 1.26. The “Biodistribution, Mean, muscle” value ([2]; 1 H) was 0.86, the “Biodistribution, Mean, muscle” value ([2]; 3 H) was 0.43 and the “Biodistribution, Mean, muscle” value ([2]; 6 H) was 0.24. The “Biodistribution, Mean, pancreas” value ([2]; pancreas, 1 H) was 1.78, the “Biodistribution, Mean, spleen” value ([2]; 1 H) was 5.38 and the “Biodistribution, Mean, spleen” value ([2]; 3 H) was 0.93. For the same molecule, the “Biodistribution, Mean, thyroid” value ([2]; 1 H) was 20.16, the “Biodistribution, Mean, thyroid” value ([2]; 3 H) was 41.44 and the “Biodistribution, Mean, thyroid” value ([2]; 6 H) was 56.95. The “Biodistribution, Mean, thyroid” value ([2]; 24 H) was 115.66, the “Biodistribution, Mean, uvea” value ([2]; 1 H) was 24.11 and the “Biodistribution, Mean, uvea” value ([2]; 3 H) was 20.30. For the same molecule, the “Biodistribution, Mean, uvea” value ([2]; 6 H) was 13.15, the “Biodistribution, Mean, uvea” value ([2]; 24 H) was 10.00 and the “Biodistribution, Mean, uvea” value ([2]; 72 H) was 13.06. The Effective period ([3]; extrapolated to 131I labelling) was 26.1 h and the Biological period ([3]; from biodistribution data) was 30.2 hours.
